Tests used:
Type in all cases: cell-based
Conditions in all cases: read-out: Activity
[1] = Cytotoxicity against human Raji cells assessed as cell viability at 500 molar ratio
[2] = Cytotoxicity against human Raji cells assessed as cell viability at 10 molar ratio
[3] = Cytotoxicity against human Raji cells assessed as cell viability at 1000 molar ratio
[4] = Cytotoxicity against human Raji cells assessed as cell viability at 100 molar ratio

| Structure (SMILES) | viability at 500 molar ratio [1] [%] | viability at 10 molar ratio [2] [%] | viability at 1000 molar ratio [3] [%] | viability at 100 molar ratio [4] [%] |
| --- | --- | --- | --- | --- |
| CC(=C/C=C/C(C)=C/C=C/C=C(C)/C=C/C=C(C)\C=C\[C@H]1[C@H](C)C(=O)CCC1(C)C)/C=C/[C@H]1[C@H](C)[C@@H](O)CCC1(C)C | > 80 | > 80 | 70 | > 80 |
| CC(=C/C=C/C(C)=C/C=C/C=C(C)/C=C/C=C(C)\C=C\[C@H]1[C@H](C)[C@@H](O)CCC1(C)C)/C=C/[C@H]1[C@H](C)[C@@H](O)CCC1(C)C | 70 | > 80 | 70 | > 80 |
| CC1=C(/C=C/C(C)=C/C=C/C(C)=C/C=C/C=C(C)/C=C/C=C(C)/C=C/C2=C(C)CCCC2(C)C)C(C)(C)CCC1 [BETA CAROTENE] | > 80 | > 80 | 70 | > 80 |
| CC(=C/C=C/C(C)=C/C=C/C=C(C)/C=C/C=C(C)\C=C\[C@H]1[C@H](C)C(=O)CCC1(C)C)/C=C/[C@H]1[C@H](C)C(=O)CCC1(C)C [CUCUMARIAXANTHIN A] | > 80 | > 80 | 70 | > 80 |

Source: ChEMBL document CHEMBL1151675, “Novel marine di-Z-carotenoids: cucumariaxanthins A, B, and C from the sea cucumber Cucumaria japonica” (J Nat Prod, 1996)
